Laboratory results from PMC8169650, “Identification of Small Molecule Inhibitors of a Mir155 Transcriptional Reporter in Th17 Cells” (Scientific Reports, 2021).
Read-outs that look alike come from different tables or passages of the source.

Tests used:
[1] = test system: Th17 cells from Mir155 reporter mice; assay: HTS viability assay (CellTiter-Glo); type: cell-based, mouse; details: primary Th17 cells
Protocol: Next, the HTS assay was further validated for robustness by screening LOPAC1280, a collection of 1280 pharmacologically active compounds. The LOPAC collection contains biologically annotated compounds with diverse mechanism(s) including but not limited to pharma-developed tools, receptor ligands and approved drugs. Seven concentrations of each compound were assayed, ranging from 3 nM to 46 µM as five-fold dilutions. One assay plate was treated with DMSO to determine the assay robustness in the absence of compounds (Fig. 1d). A total of eight assay plates including DMSO plate were tested in the LOPAC pilot screen and the median assay parameter per plate was 21-fold signal-to-background (S/B) ratio and the median Z’-factor was 0.72 (Fig. 1e), thus further validating the robustness of this assay in a 1536-well format. Data was analyzed using a curve class classification algorithm which classifies dose responses in four categories (Class 1, 2, 3 and 4) based on the quality of curve fit to the data (r^2), the magnitude of the response (efficacy), and the number of asymptotes to the calculated curve. Compounds with a curve class of either − 1.1, − 1.2, − 2.1, − 2.2 in the primary assay were classified as pharmacologically active compounds. […] The LOPAC collection was additionally tested for toxic effects using the CellTiter-Glo Luminescent Cell Viability Assay (Promega) which measures ATP levels as a proxy for number of live cells to exclude toxic compounds. […] An ideal compound should antagonize Mir155 reporter with minimal effect on cell viability.
For the HTS viability assay, the T cells were purified, polarized, plated and treated with compounds as described above for HTS β-gal assay except Columns 1 and 2 had no cells and served as basal control. After 48 h of incubation, 3 μL of CellTiter-Glo reagent (Promega) was added using a Bioraptor Flying Reagent Dispenser (Aurora Discovery-BD)[50]. The plates were incubated for 15 min at room temperature and the luminescence signal was captured using a ViewLux (Perkin Elmer) containing a luminescent filter. […]

Mir155 reporter = Mir155 reporter Beta-Glo HTS assay (β-gal activity); type: cell-based, mouse; details: Mus musculus, 48 h, read-out: EC50, inhibition of Mir155 reporter expression
Protocol: To develop an assay for the HTS screen, CD4^+ T cells were purified from spleen and lymph nodes of the Mir155 reporter mice. The purified CD4^+ T cells were cultured under Th17 cell-polarizing conditions in twelve well plates following which differentiated Th17 cells were transferred and expanded in six well plates followed by a resting period of 2 days in T cell media (schema depicted in Fig. 1a). We first optimized the cell number to maximize the assay window. To this end, differentiated Th17 cells were plated at different cell densities in the wells of polystyrene 1536-well plates under Th17 polarizing conditions. T cell activation was accomplished using two protocols. In the first protocol, magnetic beads coupled to anti-CD3 and anti-CD28 antibodies (CD3/CD28 microbeads) were added to mediate T cell activation as induction of MiR155 expression requires engagement of the TCR CD3 complex (signal 1) plus the co-stimulatory molecule CD28 (signal 2). The cells along with the beads were incubated at 37 °C, 5% CO2 for 48 h and, subsequently, high-throughput quantitation of β-gal activity was performed after 30 min of incubation using the Beta-Glo Assay system (Fig. 1b).
The NPC collection was screened at seven concentrations (top concentration 46 µM; 1:5 dilution thereafter) and drug response curves for the compounds were generated using our qHTS curve class classification algorithm as described above.
CD4^+ cells were purified from spleens and lymph nodes of Mir155 reporter mice as described above. Briefly, single cell suspensions were prepared by mechanical disruption followed by lysis of red blood cells with 0.83% ammonium chloride. CD4^+ T cells were either isolated by FACS sorting (BD FACS Aria) or were positively selected using magnetic CD4 microbeads (Miltenyi Biotec)[43]. 1 million CD4^+ cells/well were cultured in anti-CD3/CD28 (1 µg/ml each) coated 12 well plates under Th17 polarization conditions following which differentiated Th17 cells were transferred and expanded in six well plates followed by a resting period of 2 days in T cell media. A cocktail containing 10 ng/ml each of IL-6, IL-1 β, IL-21 and TGF-β (0.5 ng/ml) and IFNγ, IL-4, IL-12 neutralizing antibodies (10 μg/ml) was used for the Th17 polarizing conditions. For the HTS assay, 2000 differentiated Th17 cells/well in Th17 polarizing media were added to Greiner-one high base solid bottom white tissue culture treated 1536 well plates (catalog # 789173-F) using a small cassette and a Multidrop Combi dispenser (Thermo Fisher Scientific Inc.,Waltham, MA). Compounds were added using a Kalypsys pintool (Columns 5–48) and magnetic beads coupled to anti-CD3 and anti-CD28 (CD3/CD28 microbeads) were added to mediate T cell activation. CD3/CD28 microbeads were not added to first 2 columns and those wells served as basal control. DMSO was added to columns 3 and 4 and served as 100% signal. The plates were incubated for 48 h at 37 °C, 5% CO2, 95% humidity covered with low evaporation stainless steel lids from Kalypsys. After 48 h of incubation, 5 µl of Beta-Glo reagent (Beta Glo Assay System, Promega) was added using a Bioraptor Flying Reagent Dispenser (Aurora Discovery-BD) and the plates were incubated at room temperature for 30 min. Luminescence signal was captured using a 10 s exposure with a ViewLux (Perkin Elmer) containing a luminescent filter. Beta Glo reagent consists of Beta Glo substrate and buffer that are combined to form the Beta Glo reagent (Beta Glo Assay System, Promega).

[2] = test system: IL-17 production in Th17 cells; assay: Intracellular IL-17 flow cytometric cytokine assay under Th17 polarization; type: cell-based, mouse; details: for IL-17+ cells, gated on live CD4+CD44high cells: DMSO 32% (panel b), 36.8% (panel c); for inhibition at 20 µM: Mus musculus, 96 h, read-out: down-regulation (inhibition) of IL-17 production compared to control
Protocol: (§1) It has been previously shown that IL-17 production is defective in miR-155 deficient cells. […] To test the hit compounds for IL-17 downregulation, we purified naive CD4^+ T cells from C57BL/6 mice and cultured them under Th17 polarization condition. Small molecules at multiple concentrations (20 µM, 10 µM and 5 µM) were added 18 h post-plating of CD4^+ T cells on anti-CD3/CD28 coated plates and again on day 2 of culture (schema depicted in Fig. 3a).
(§2) Spleens and lymph nodes were harvested from mice and single cell suspensions were prepared by mechanical disruption followed by lysis of red blood cells with 0.83% ammonium chloride. CD4^+ T cells were either isolated by FACS sorting (BD FACS Aria) or were positively selected using magnetic CD4 microbeads (Miltenyi Biotec). For intracellular IL-17 quantitation by flow cytometry, 0.25 million cells/ well were plated in anti-CD3/CD28 (1 µg/ml) coated 48 well plates. A cocktail containing 10 ng/ml each of IL-6, IL-1 β, IL-21 and TGF-β (0.5 ng/ml) and IFNγ, IL-4, IL-12 neutralizing antibodies (10 μg/ml) was used for the Th17 polarizing conditions. All recombinant cytokines were purchased from R&D Systems and crosslinking antibodies were purified from hybridomas (Harlan). Cells were treated with small molecules at indicated concentrations at 18 h and 48 h of cell plating. On day 4 of the culture, cells were stimulated with 20 ng/ml of phorbol 12-myristate 13-acetate (PMA) and ionomycin (1 μg/ml) for 4 h in the presence of brefeldin A. Following stimulation, cells were stained with fixable viability dye (eBioscience) and surface stained for CD44 and CD4, permeabilized using cytofix/cytoperm (BD biosciences) and subsequently, stained for intracellular IL-17. Foxp3/Transcription Factor Staining kit (eBioscience) kit was used for intranuclear staining of RORγt. Samples were acquired on BD Fortessa and analyzed using Flowjo (Tree star Inc).

[3] = LC-MS analysis of compound stability
Protocol: We analyzed by liquid chromatography mass spectrometry (LC–MS) the 10 mM compound stock solutions in DMSO, stored at − 20 °C, that were used in the screening (older batch) versus the “fresh” solutions. […] Sample 2 is another sample that had been kept outside at room temperature for 30 days before evaluation.

CD4+ T cells = assay: Viability dye and CD44 activation staining in the IL-17 flow cytometric assay; type: cell-based; details: Fig. S2a
Protocol: as §1, §2

[4] = Th17 cells from Mir155 reporter mice, β-gal signal

| SMILES | cytotoxicity / cell viability [1] | EC50 (Mir155 reporter; [4]) | IL-17+ cells, gated on live CD4+CD44high cells ([2]; 20 µM) | effect on IL-17 production ([2]; C57BL/6 CD4+ T cells, Th17 polarization) | stability by LC–MS [3] | live cells (fixable viability dye, Live-dead) (CD4+ T cells; DMSO 77.4% / 80.6%) | CD4+ CD44+ cells (CD4+ T cells; DMSO 97.2% / 98.2%) | IL-17 / RORγt plot, percent cells, gated on live CD4+CD44high ([2]; Fig. S2b, DMSO 32.4% / 21.2%) | inhibition at 20 µM ([2]; 20 µM, day 4, C57BL/6 CD4+ T cells) | EC50 (Mir155 reporter) | inhibition at 20 µM ([2]; CD4+ T) |
| --- | --- | --- | --- | --- | --- | --- | --- | --- | --- | --- | --- |
| c1ccc2[nH]c(-c3cscn3)nc2c1 [thiabendazole, reference compound] | not because of toxicity of the compounds | 5500 nM | 31% | did not affect IL-17 production | stable and pure | – | – | – | – | – | – |
| O=C(Nc1ncc([N+](=O)[O-])s1)c1cccs1 [tenonitrozole, reference compound] | not because of toxicity of the compounds | 140 nM | 10.4% | – | stable and pure | 70.6% | 96.4% | 9.3% | 68% | – | – |
| CCCSc1ccc2nc(NC(=O)OC)[nH]c2c1 [albendazole, reference compound] | not because of toxicity of the compounds | – | 14.2% | – | stable and pure | – | – | – | – | 2500 nM | 55% |
